Patent US20150119372A1, “APPLICATION OF 18-METHYL-15SS,16SS-METHYLENE-19-NOR-20-SPIROX-4-EN-3-ONE SYSTEMS IN THE TREATMENT OF MENORRHAGIA, AS WELL AS INTRAUTERINE SYSTEMS CONTAINING 18-METHYL-15SS,16SS-METHYLENE-19-NOR-20-SPIROX-4-EN-3-ONE FOR TREATING UTERINE BLEEDING DISORDERS” (BAYER PHARMA AKTIENGESELLSCHAFT, priority 2012, published 2015)
pEC50: −log10 of the molar value.

Legend:
[1] = In vivo break-down in animal species; settings: all animal species studied in vivo
IGFBP-1 = assay: Gene expression analysis of marker genes in uterine tissue of rats carrying IUS (rods); format: in vivo; settings: rat uterus, FIG. 3/4
Procedure: (§1) The local uterine action of the progestin compared to systemic side effects (dissociation) was investigated on the basis of studies using rats. The uterus of ovary-resected rats responds to implantation of progestin-containing IUS (rods) with decidualization and weight gain. The local progestin effects were also determined on the basis of changes in gene expression.
Ovary-resected female rats were treated with estradiol (E2) for three days (0.2 μg/day/animal, subcutaneous dosing). On day 4, an IUS (rod) was implanted into the right uterine horn of each animal. The left uterine horn remained untreated for internal comparison. Administration of E2 was continued with a daily dose of 0.1 μg/animal to ensure responsiveness of the uterus (maintaining progesterone-receptor expression) to progestins. Blood was taken for LH level measurements on days 4, 10 and 17. […]
Gene expression analysis was carried out with from 50 ng to 200 ng of cDNA per reaction on an SDS7900HT Real.time PCR system (Applied Biosystems, Carlsbad, USA) using TaqMan probes (Applied Biosystems; IGFBP-1 Rn00565713_m1, Cyp26a1 Rn00590308_m1, PPIA Rn00690933_m1) and the Fast Blue qPCR MasterMix Plus (Eurogentec, Liège, Belgium; #RT-QP2X-03+FB). For relative quantification, cyclophilin A (PPIA) was used as an endogenous control. Relative expression levels were calculated according to the comparative delta delta CT method.

luteinizing hormone (LH) = assay: Serum LH level in ovary-resected rats carrying IUS (rod), as a sign of systemic effect; format: in vivo, rat; settings: FIG. 2/4
Procedure: Serum levels of luteinizing hormone (LH) are used for detecting systemic effects of the locally administered progestin. Basal serum-LH levels of ovary-resected rats are elevated compared to the LH levels of intact control animals. Undesired systemic efficacy of the uterine-administered progestin can be detected by a decrease in the LH level.
(§2) Ovary-resected female rats were treated with estradiol (E2) for three days (0.2 μg/day/animal, subcutaneous dosing). On day 4, an IUS (rod) was implanted into the right uterine horn of each animal. The left uterine horn remained untreated for internal comparison. Administration of E2 was continued with a daily dose of 0.1 μg/animal to ensure responsiveness of the uterus (maintaining progesterone-receptor expression) to progestins. Blood was taken for LH level measurements on days 4, 10 and 17.

[2] = In vitro (liver) break-down for humans; format: in vitro ADME; settings: human liver in vitro
Procedure: The rapid in-vitro breakdown in the liver may also indicate rapid in-vivo breakdown, resulting in a very low systemic exposition of 18-methyl-15β,16β-methylene-19-nor-20-spirox-4-en-3-one and 18-Methyl-6α,7α,15β,16β-dimethylene-19-nor-20-spirox-4-en-3-one after administration through an IUS being calculated. The expected substance levels (Css=concentration at steady state) are calculated from the rate of release from the IUS divided by the clearance. Using a dose of 20 μg per day and woman, which corresponds to that of Mirena, gives a calculated systemic exposition (load) for 18-methyl-15β,16β-methylene-19-nor-20-spirox-4-en-3-one and 18-methyl-6α,7α,15β,16β-dimethylene-19-nor-20-spirox-4-en-3-one, which is over 30 times lower in comparison with Mirena®.

uterus = assay: Uterine horn weight gain after implantation of progestin-containing IUS (rod) in ovary-resected rats; format: in vivo, rat; settings: IUS (rod) in right uterine horn, FIG. 1/4
Procedure: as §1, §2

[3] = In-vitro metabolic studies (liver); format: in vitro ADME; settings: all in-vitro metabolic studies (liver)
human androgen receptor = target: T1, human androgen receptor (Homo sapiens, UniProt P10275); assay: hAR transactivation in PC3 cells stably transfected with hAR and MTV-luc reporter gene; format: cell-based; settings: hAR, MTV-luc reporter
T1 construct: expressed in transfected cells; host or cells: PC3 (human prostate carcinoma) cells, stably transfected with hAR and the MTV-luc reporter
T1 sequence (P10275 1-920): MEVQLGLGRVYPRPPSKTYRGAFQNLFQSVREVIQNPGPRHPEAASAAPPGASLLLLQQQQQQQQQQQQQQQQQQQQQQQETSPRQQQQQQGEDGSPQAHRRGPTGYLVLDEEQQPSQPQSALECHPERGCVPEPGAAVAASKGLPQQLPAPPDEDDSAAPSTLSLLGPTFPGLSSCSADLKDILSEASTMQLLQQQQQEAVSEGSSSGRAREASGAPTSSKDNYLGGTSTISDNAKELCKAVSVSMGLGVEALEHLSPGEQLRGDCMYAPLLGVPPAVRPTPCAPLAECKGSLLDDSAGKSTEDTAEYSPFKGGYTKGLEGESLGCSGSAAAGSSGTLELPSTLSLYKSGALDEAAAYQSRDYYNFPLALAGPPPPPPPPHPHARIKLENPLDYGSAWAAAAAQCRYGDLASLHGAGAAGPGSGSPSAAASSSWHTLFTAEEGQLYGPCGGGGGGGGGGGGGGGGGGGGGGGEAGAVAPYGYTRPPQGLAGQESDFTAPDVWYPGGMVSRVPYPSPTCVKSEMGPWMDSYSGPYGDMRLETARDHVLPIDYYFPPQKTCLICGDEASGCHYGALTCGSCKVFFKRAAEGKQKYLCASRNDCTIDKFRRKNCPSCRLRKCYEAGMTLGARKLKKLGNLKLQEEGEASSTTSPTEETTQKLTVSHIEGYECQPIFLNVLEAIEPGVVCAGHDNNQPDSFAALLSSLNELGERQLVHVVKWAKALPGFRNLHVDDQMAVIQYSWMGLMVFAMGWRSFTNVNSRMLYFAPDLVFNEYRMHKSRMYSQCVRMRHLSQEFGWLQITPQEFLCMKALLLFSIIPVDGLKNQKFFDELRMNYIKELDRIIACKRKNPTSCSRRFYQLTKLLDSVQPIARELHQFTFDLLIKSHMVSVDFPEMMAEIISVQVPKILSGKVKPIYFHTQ
Procedure: For this, different concentrations of the test substances were to cells with stable expression of the human androgen receptor, and activation of the androgen receptor can be detected via a reporter gene.
For transactivation studies, PC3 (human prostate carcinoma) cells which have been stably transfected with hAR and the MTV-luc reporter gene were used. […] The cells were cultured at 37° C. and 5% CO2. The test medium corresponded to the culture medium, except that 10% FCS was replaced with 5% activated carbon-treated FCS (CCS). Cells were seeded in wells of a 96 well plate (“CulturPlate” from Packard #6005180) with 2×10^4 cells/well/200 μl of test medium. The cells were incubated with different concentrations of the test substances, and 80 μl of substrate were measured using the “steadylite HTS Reporter Gene Assay System” from Perkin Elmer.

[4] = Mirena use; cited from earlier work
[5] = dose range tested: compound A 0.6-10 μg per animal and day, compound B 1-45 μg/animal and day

Row | Structure (SMILES) | break-down rate in vivo [1] | rate of release from the IUS at which IGFBP-1 gene expression is induced, lower than with levonorgestrel (IGFBP-1) | LH decrease (systemic side effect) (luteinizing hormone (LH); 10 μg/animal and day dose) | LH decrease (systemic side effect) (luteinizing hormone (LH); [5]) | break-down rate in vitro (liver) for humans [2] | local efficacy by way of weight gain in the IUS-carrying uterine horn (uterus) | break-down rate in in-vitro metabolic studies (liver) [3] | pEC50 (human androgen receptor) | average plasma levels of active ingredient [4]
1 | CC[C@]12CCC3C4CCC(=O)C=C4CCC3C1[C@@H]1C[C@@H]1[C@@]21CCCO1 (stereo partly drawn) [compound A, 18-methyl-15β,16β-methylene-19-nor-20-spirox-4-en-3-one] | very fast break-down rate | approx. 7 × | exception | no LH decrease | Very rapid break-down rates | dose-dependent local efficacy by way of weight gain | very fast break-down rate | – | –
2 | CC[C@]12CCC3C4CCC(=O)C=C4C4CC4C3C1[C@@H]1C[C@@H]1[C@@]21CCCO1 (stereo partly drawn) [compound B, 18-methyl-6α,7α,15β,16β-dimethylene-19-nor-20-spirox-4-en-3-one] | very fast break-down rate | – | – | no LH decrease | Very rapid break-down rates | dose-dependent local efficacy by way of weight gain | very fast break-down rate | 7.25 | –
3 | C#C[C@]1(O)CC[C@H]2[C@@H]3CCC4=CC(=O)CC[C@@H]4[C@H]3CC[C@@]21CC [levonorgestrel] | – | – | – | – | – | – | – | – | around 206 pg/ml
